# Results as given in PubChem BioAssay AID196 (DTP/NCI, 2004).
# Where “and” joins values, the source holds several entries; their conditions need not be identical. Equal values may be shown once. Toxic doses and inconclusive results are not listed.
# Tested on: BDF1 mice, intracerebral B16 melanoma, median survival T/C
# Assay: NCI In Vivo Anticancer Drug Screen. Data for tumor model B16 Melanoma (intracerebral) in B6D2F1 (BDF1) mice
# Details: endpoint: median survival time, higher = longer survival
# Protocol: The antitumor activity of compounds was measured in mice bearing transplantable tumors. Survival or tumor size were measured and the results are expressed as the measurement made in the treated group (T) divided by the measurement made in the vehicle treated control group (C). The tumor model used in this assay is B16 Melanoma (intracerebral) in B6D2F1 (BDF1) mice
# [1] = dose: 16.0 mg/kg/injection, schedule: Q01DX005 (ip), vehicle: saline
# [2] = dose: 16.0 mg/kg/injection, schedule: Q01DX005 (ip), vehicle: saline with Tween-80
# [3] = dose: 32.0 mg/kg/injection, schedule: Q01DX005 (ip), vehicle: saline with Tween-80
# [4] = dose: 64.0 mg/kg/injection, schedule: Q01DX005 (ip), vehicle: saline with Tween-80
# [5] = dose: 128.0 mg/kg/injection, schedule: Q01DX005 (ip), vehicle: saline with Tween-80
# [6] = dose: 1.0 mg/kg/injection, schedule: Q01DX009 (ip), vehicle: saline
# [7] = dose: 2.0 mg/kg/injection, schedule: Q01DX009 (ip), vehicle: saline
# [8] = dose: 4.0 mg/kg/injection, schedule: Q01DX009 (ip), vehicle: saline with Tween-80
# [9] = dose: 4.0 mg/kg/injection, schedule: Q01DX009 (ip), vehicle: saline
# [10] = dose: 8.0 mg/kg/injection, schedule: Q01DX009 (ip), vehicle: saline
# [11] = dose: 0.5 mg/kg/injection, schedule: Q01DX009 (ip), vehicle: saline
# [12] = dose: 32.0 mg/kg/injection, schedule: Q01DX005 (ip), vehicle: Klucel (hydroxypropylcellulose) (HPC)
# [13] = dose: 12.5 mg/kg/injection, schedule: Q01DX009 (ip), vehicle: saline
# [14] = dose: 25.0 mg/kg/injection, schedule: Q01DX009 (ip), vehicle: saline
# [15] = dose: 50.0 mg/kg/injection, schedule: Q01DX009 (ip), vehicle: saline
# [16] = dose: 100.0 mg/kg/injection, schedule: Q01DX009 (ip), vehicle: saline
compound,measurement,setting,value
F,T/C,[1],102 % of control
same,T/C,"dose: 32.0 mg/kg/injection, schedule: Q01DX005 (ip), vehicle: saline",100 % of control
CN(N=O)C(=O)N[C@@H](C=O)[C@@H](O)[C@H](O)[C@H](O)CO,T/C,"dose: 0.12 mg/kg/injection, schedule: Q01DX009 (ip), vehicle: citric acid",101 % of control
same,T/C,"dose: 0.25 mg/kg/injection, schedule: Q01DX009 (ip), vehicle: citric acid",94 % of control
same,T/C,"dose: 0.5 mg/kg/injection, schedule: Q01DX009 (ip), vehicle: citric acid",104 % of control
same,T/C,"dose: 1.0 mg/kg/injection, schedule: Q01DX009 (ip), vehicle: citric acid",102 % of control
same,T/C,"dose: 2.0 mg/kg/injection, schedule: Q01DX009 (ip), vehicle: citric acid",102 % of control
same,T/C,"dose: 5.0 mg/kg/injection, schedule: Q01DX009 (ip), vehicle: citric acid",102 % of control
same,T/C,"dose: 10.0 mg/kg/injection, schedule: Q01DX009 (ip), vehicle: citric acid",108 % of control
same,T/C,"dose: 0.12 micrograms/kg/injection, schedule: Q01DX009 (ip), vehicle: citric acid",94 % of control
CCC(C)N(C)/N=N/c1nc[nH]c1C(N)=O (centres undefined),T/C,[2],102 % of control
same,T/C,[3],106 % of control
same,T/C,[4],112 % of control
same,T/C,[5],107 % of control
O=C1C(=O)c2ccccc2C(O)=C1CC=C(Cl)Cl,T/C,"dose: 10.0 mg/kg/injection, schedule: Q01DX005 (ip), vehicle: Klucel (hydroxypropylcellulose) (HPC)",101 % of control
same,T/C,"dose: 20.0 mg/kg/injection, schedule: Q01DX005 (ip), vehicle: Klucel (hydroxypropylcellulose) (HPC)",98 % of control
same,T/C,"dose: 40.0 mg/kg/injection, schedule: Q01DX005 (ip), vehicle: Klucel (hydroxypropylcellulose) (HPC)",106 % of control
COc1cccc2c1C(=O)c1c(O)c3c(c(O)c1C2=O)C[C@@](O)(/C(C)=N/NC(=O)c1ccccc1)C[C@@H]3OC1CC(N)C(O)C(C)O1 (some centres undefined),T/C,"dose: 1.0 mg/kg/injection, schedule: Q01DX009 (ip), vehicle: saline with Tween-80",105 % of control
same,T/C,[6],89 % of control
same,T/C,"dose: 2.0 mg/kg/injection, schedule: Q01DX009 (ip), vehicle: saline with Tween-80",111 % of control
same,T/C,[7],89 % of control and 95 % of control
same,T/C,[8],109 % of control
same,T/C,[9],93 % of control and 100 % of control
same,T/C,[10],99 % of control
COc1ccc2c(c1OC(C)=O)-c1cc(O)cc3c1C(C2)N(C(=O)CN(CCCl)CCCl)CC3 (centres undefined),T/C,"dose: 3.12 mg/kg/injection, schedule: Q01DX009 (ip), vehicle: saline with Tween-80",96 % of control
same,T/C,"dose: 6.25 mg/kg/injection, schedule: Q01DX009 (ip), vehicle: saline with Tween-80",100 % of control
same,T/C,"dose: 8.0 mg/kg/injection, schedule: Q01DX005 (ip), vehicle: DMSO",104 % of control
same,T/C,"dose: 12.5 mg/kg/injection, schedule: Q01DX009 (ip), vehicle: saline with Tween-80",93 % of control
same,T/C,"dose: 16.0 mg/kg/injection, schedule: Q01DX005 (ip), vehicle: DMSO",106 % of control
COc1ccc(CC2C(=O)NC(C)C(=O)N(C)C3C(=O)N(C)C(Cc4ccc(O)c(c4)Oc4ccc(cc4)C3O)C(=O)NC(C)C(=O)NC(C)C(=O)N2C)cc1 (centres undefined),T/C,"dose: 0.12 mg/kg/injection, schedule: Q01DX009 (ip), vehicle: Klucel (hydroxypropylcellulose) (HPC)",97 % of control and 102 % of control
same,T/C,"dose: 0.12 mg/kg/injection, schedule: Q01DX009 (ip), vehicle: saline",93 % of control
same,T/C,"dose: 0.25 mg/kg/injection, schedule: Q01DX009 (ip), vehicle: Klucel (hydroxypropylcellulose) (HPC)",100 % of control and 108 % of control
same,T/C,"dose: 0.25 mg/kg/injection, schedule: Q01DX009 (ip), vehicle: saline",103 % of control
same,T/C,"dose: 0.5 mg/kg/injection, schedule: Q01DX009 (ip), vehicle: Klucel (hydroxypropylcellulose) (HPC)",94 % of control and 97 % of control and 100 % of control
same,T/C,[11],102 % of control
same,T/C,"dose: 1.0 mg/kg/injection, schedule: Q01DX009 (ip), vehicle: Klucel (hydroxypropylcellulose) (HPC)",90 % of control and 94 % of control and 100 % of control
same,T/C,[6],98 % of control
same,T/C,[7],100 % of control
COc1ccc2c(c1O)-c1cccc3c1[C@@H](C2)N(CCCl)CC3,T/C,"dose: 8.0 mg/kg/injection, schedule: Q01DX005 (ip), vehicle: saline",94 % of control
same,T/C,[1],88 % of control
CC(C)=CCC1=C(O)c2ccccc2C(=O)C1=O,T/C,[12],98 % of control
same,T/C,"dose: 64.0 mg/kg/injection, schedule: Q01DX005 (ip), vehicle: Klucel (hydroxypropylcellulose) (HPC)",90 % of control and 96 % of control
same,T/C,"dose: 128.0 mg/kg/injection, schedule: Q01DX005 (ip), vehicle: Klucel (hydroxypropylcellulose) (HPC)",87 % of control and 105 % of control
same,T/C,"dose: 256.0 mg/kg/injection, schedule: Q01DX005 (ip), vehicle: Klucel (hydroxypropylcellulose) (HPC)",90 % of control and 96 % of control
CN(C)N=Nc1ccc([N+](=O)[O-])cc1C(N)=O,T/C,[2],100 % of control
same,T/C,[3],105 % of control
same,T/C,[4],110 % of control
same,T/C,[5],107 % of control
CN(C)/N=N/c1nc[nH]c1C(N)=O,T/C,[13],116 % of control and 113 % of control
same,T/C,"dose: 25.0 mg/kg/injection, schedule: Q01DX009 (ip), vehicle: saline with Tween-80",105 % of control
same,T/C,[14],116 % of control and 122 % of control
same,T/C,"dose: 50.0 mg/kg/injection, schedule: Q01DX009 (ip), vehicle: saline with Tween-80",111 % of control
same,T/C,[15],109 % of control
same,T/C,"dose: 100.0 mg/kg/injection, schedule: Q01DX009 (ip), vehicle: saline with Tween-80",117 % of control
same,T/C,[16],122 % of control
same,T/C,"dose: 200.0 mg/kg/injection, schedule: Q01DX009 (ip), vehicle: saline with Tween-80",112 % of control
O=NN(CCCl)C(=O)NCCCl,T/C,[11],104 % of control and 112 % of control
same,T/C,[6],109 % of control and 113 % of control
same,T/C,"dose: 1.87 mg/kg/injection, schedule: Q01DX009 (ip), vehicle: saline",120 % of control
same,T/C,[7],111 % of control and 112 % of control
same,T/C,"dose: 2.5 mg/kg/injection, schedule: Q04DX003 (ip), vehicle: saline sonified",108 % of control
same,T/C,"dose: 3.8 mg/kg/injection, schedule: Q01DX009 (ip), vehicle: saline",108 % of control
same,T/C,"dose: 5.0 mg/kg/injection, schedule: Q01DX009 (ip), vehicle: other",158 % of control
same,T/C,"dose: 7.5 mg/kg/injection, schedule: Q01DX009 (ip), vehicle: saline",150 % of control
same,T/C,[10],172 % of control and 188 % of control
same,T/C,"dose: 10.0 mg/kg/injection, schedule: Q04DX003 (ip), vehicle: saline sonified",175 % of control
same,T/C,"dose: 15.0 mg/kg/injection, schedule: Q01DX009 (ip), vehicle: saline",91 % of control and 108 % of control
O=P1(N(CCCl)CCCl)NCCCO1 (centres undefined),T/C,[13],116 % of control and 92 % of control
same,T/C,"dose: 12.5 mg/kg/injection, schedule: Q01DX009 (ip), vehicle: water",108 % of control
same,T/C,[14],100 % of control and 108 % of control
same,T/C,"dose: 25.0 mg/kg/injection, schedule: Q01DX009 (ip), vehicle: water",116 % of control
same,T/C,[15],120 % of control and 121 % of control
same,T/C,[16],95 % of control
same,T/C,"dose: 100.0 mg/kg/injection, schedule: Q01DX009 (ip), vehicle: water",104 % of control
O=C1c2ccccc2C(=O)c2c(NCCNCCO)ccc(NCCNCCO)c21,T/C,"dose: 1.0 mg/kg/injection, schedule: Q01DX005 (ip), vehicle: saline with Tween-80",120 % of control and 111 % of control
same,T/C,"dose: 1.0 mg/kg/injection, schedule: Q01DX005 (ip), vehicle: saline",99 % of control and 107 % of control
same,T/C,"dose: 2.0 mg/kg/injection, schedule: Q01DX005 (ip), vehicle: saline with Tween-80",118 % of control and 109 % of control
same,T/C,"dose: 2.0 mg/kg/injection, schedule: Q01DX005 (ip), vehicle: saline",120 % of control and 99 % of control
same,T/C,"dose: 4.0 mg/kg/injection, schedule: Q01DX005 (ip), vehicle: saline with Tween-80",109 % of control
same,T/C,"dose: 4.0 mg/kg/injection, schedule: Q01DX005 (ip), vehicle: saline",104 % of control and 112 % of control
same,T/C,[8],99 % of control and 102 % of control
same,T/C,[9],95 % of control and 103 % of control
same,T/C,"dose: 8.0 mg/kg/injection, schedule: Q01DX009 (ip), vehicle: saline with Tween-80",93 % of control and 102 % of control
same,T/C,[10],98 % of control and 102 % of control
same,T/C,"dose: 16.0 mg/kg/injection, schedule: Q01DX005 (ip), vehicle: Klucel (hydroxypropylcellulose) (HPC)",116 % of control
same,T/C,"dose: 16.0 mg/kg/injection, schedule: Q01DX009 (ip), vehicle: saline with Tween-80",100 % of control
same,T/C,"dose: 16.0 mg/kg/injection, schedule: Q01DX009 (ip), vehicle: saline",102 % of control and 103 % of control
same,T/C,[12],107 % of control
same,T/C,"dose: 32.0 mg/kg/injection, schedule: Q01DX009 (ip), vehicle: saline",86 % of control
